# In patent US9006433B2, “Substituted pyrimidines” (Merck Sharp & Dohme Corp., priority 2010, dated 2015):
# Target: T1, PHD2 (Homo sapiens, UniProt Q9GZT9)
# T1 construct: FLAG-tagged full length PHD2 expressed in and purified from baculovirus-infected Sf9 cells; FLAG; made in house; host or cells: baculovirus-infected Sf9 cells
# Test: PHD2 inhibition assay (time resolved fluorescence, HIF-1α peptide hydroxylation / VHL complex detection)
# Type: biochemical
# Settings: FLAG-tagged full length PHD2; 0.2 μM 2-oxoglutarate, 0.5 μM HIF-1α peptide
# Procedure: To each well of a 96-well plate was added 1 μL of test compound in DMSO and 20 μl of assay buffer (50 mM Iris pH 7.4/0.01% Tween-20/0.1 mg/ml bovine serum albumin/10 μM ferrous sulfate/1 mM sodium ascorbate/20 μg/ml catalase) containing 0.15 μg/ml FLAG-tagged full length PHD2 expressed in and purified from baculovirus-infected Sf9 cells. After a 30 min preincubation at room temperature, the enzymatic reactions were initiated by the addition of […] of substrates (final concentrations of 0.2 μM 2-oxoglutarate and 0.5 μM HIF-1α peptide biotinyl-DLDLEMLAPYIPMDDDFQL (SEQ ID NO:1)). After 2 hr at room temperature, the reactions were terminated and signals were developed by the addition of a 25 μL quench/detection mix to a final concentration of 1 mM ortho-phenanthroline, 0.1 mM EDTA, 0.5 nM anti-(His)6 LANCE reagent (Perkin-Elmer Life Sciences), 100 nM AF647-labeled streptavidin (Invitrogen), and 2 μg/ml (His)-6-VHL complex (S. Tan(2001) Protein Expr. Purif. 21, 224-234). The ratio of time resolved fluorescence signals at 665 and 620 nm was determined, and percent inhibition was calculated relative to an uninhibited control sample run in parallel.
# T1 sequence (Q9GZT9 whole entry, species assumed): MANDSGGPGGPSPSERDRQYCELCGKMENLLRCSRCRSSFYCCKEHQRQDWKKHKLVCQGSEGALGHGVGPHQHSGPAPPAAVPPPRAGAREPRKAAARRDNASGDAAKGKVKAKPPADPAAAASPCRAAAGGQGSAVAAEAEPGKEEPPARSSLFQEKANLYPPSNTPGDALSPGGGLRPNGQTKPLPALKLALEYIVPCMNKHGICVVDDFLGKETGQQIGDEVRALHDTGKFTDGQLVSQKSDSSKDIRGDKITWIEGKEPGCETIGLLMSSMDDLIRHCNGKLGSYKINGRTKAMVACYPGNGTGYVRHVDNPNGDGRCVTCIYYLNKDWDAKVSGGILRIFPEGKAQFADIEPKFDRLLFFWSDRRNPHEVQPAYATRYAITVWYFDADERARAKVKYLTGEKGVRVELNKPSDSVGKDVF
row,Compound,IC50 [nM]
1,"O=C(Nc1cnc(-n2cccn2)nc1O)c1ccccc1Oc1ccccc1 [Compound 3-20, N-(4-hydroxy-2-(1H-pyrazol-1-yl)pyrimidin-5-yl)-2-phenoxybenzamide]",20 to 100
2,"CCCCCCC(=O)Nc1cnc(-n2cccn2)nc1O [Compound 3-43, N-(4-hydroxy-2-(1H-pyrazol-1-yl)pyrimidin-5-yl)heptanamide]",0.5 to 20
3,"COc1ccc(CC(=O)Nc2cnc(-n3cccn3)nc2O)cc1 [Compound 3-32, N-(4-hydroxy-2-(1H-pyrazol-1-yl)pyrimidin-5-yl)-2-(4-methoxyphenyl)acetamide]",0.5 to 20
4,"O=C(Cc1ccccc1C(F)(F)F)Nc1cnc(-n2cccn2)nc1O [Compound 3-27, 2-(2-(trifluoromethyl)phenyl)-N-(4-hydroxy-2-(1H-pyrazol-1-yl)pyrimidin-5-yl)acetamide]",0.5 to 20
5,"O=C(Nc1cnc(-n2cccn2)nc1O)NC1CCCCC1 [Compound 5-4, 1-cyclohexyl-3-(4-hydroxy-2-(1H-pyrazol-1-yl)pyrimidin-5-yl)urea]",20 to 100
6,"CS(=O)(=O)c1ccccc1C(=O)Nc1cnc(-n2cccn2)nc1O [Compound 3-14, N-(4-hydroxy-2-(1H-pyrazol-1-yl)pyrimidin-5-yl)-2-(methylsulfonyl)benzamide]",100 to 10000
7,"O=S(=O)(Nc1cnc(-n2cccn2)nc1O)c1ccc(Cl)cc1 [Compound 4-1, 4-chloro-N-[4-hydroxy-2-(1H-pyrazol-1-yl)pyrimidin-5-yl]benzenesulfonamide]",20 to 100
8,"CC(C)(C(=O)Nc1cnc(-n2cccn2)nc1O)c1ccccc1 [Compound 3-37, N-(4-hydroxy-2-(1H-pyrazol-1-yl)pyrimidin-5-yl)-2-methyl-2-phenylpropanamide]",0.5 to 20
9,"O=C(CC1CCCCC1)Nc1cnc(-n2cccn2)nc1O [Compound 3-48, 2-cyclohexyl-N-(4-hydroxy-2-(1H-pyrazol-1-yl)pyrimidin-5-yl)acetamide]",0.5 to 20
10,"O=C(Nc1cnc(-n2cccn2)nc1O)c1cccc(Cl)c1 [Compound 3-2, 3-chloro-N-(4-hydroxy-2-(1H-pyrazol-1-yl)pyrimidin-5-yl)benzamide]",0.5 to 20
11,"CC(C)(C)NC(=O)Nc1cnc(-n2cccn2)nc1O [Compound 5-6, ert-butyl-3-(4-hydroxy-2-(1H-pyrazol-1-yl)pyrimidin-5-yl)urea]",100 to 10000
12,"O=C(Nc1cnc(-n2cccn2)nc1O)NC1CCCC1 [Compound 5-5, 1-cyclopentyl-3-(4-hydroxy-2-(1H-pyrazol-1-yl)pyrimidin-5-yl)urea]",100 to 10000
13,"O=C(Cc1cccc(C(F)(F)F)c1)Nc1cnc(-n2cccn2)nc1O [Compound 3-28, 2-(3-(trifluoromethyl)phenyl)-N-(4-hydroxy-2-(1H-pyrazol-1-yl)pyrimidin-5-yl)acetamide]",0.5 to 20
14,"O=C(Cc1cnc(-n2cccn2)nc1O)NC1CCCCC1 [Compound 12-2, N-cyclohexyl-2-(4-hydroxy-2-(1H-pyrazol-1-yl)pyrimidin-5-yl)acetamide]",100 to 10000
15,"N#Cc1cccc(CC(=O)Nc2cnc(-n3cccn3)nc2O)c1 [Compound 3-26, 2-(3-cyanophenyl)-N-(4-hydroxy-2-(1H-pyrazol-1-yl)pyrimidin-5-yl)acetamide]",0.5 to 20
16,"O=C(Cc1ccncc1)Nc1cnc(-n2cccn2)nc1O [Compound 3-41, N-(4-hydroxy-2-(1H-pyrazol-1-yl)pyrimidin-5-yl)-2-(pyridin-4-yl)acetamide]",20 to 100
17,"O=C(Nc1cnc(-n2cccn2)nc1O)c1ccc(Cl)cc1 [Compound 3-3, 4-chloro-N-(4-hydroxy-2-(1H-pyrazol-1-yl)pyrimidin-5-yl)benzamide]",20 to 100
18,"O=C(Cc1cccc(Cl)c1)Nc1cnc(-n2cccn2)nc1O [Compound 3-24, 2-(3-chlorophenyl)-N-(4-hydroxy-2-(1H-pyrazol-1-yl)pyrimidin-5-yl)acetamide]",0.5 to 20
19,"CC(C)(C)OC(=O)Nc1cnc(-n2cccn2)nc1O [Compound 5-12, tert-butyl 4-hydroxy-2-(1H-pyrazol-1-yl)pyrimidin-5-yl carbamate]",100 to 10000
20,"O=C(Nc1cnc(-n2cccn2)nc1O)C1(c2ccccc2)CC1 [Compound 3-38, N-(4-hydroxy-2-(1H-pyrazol-1-yl)pyrimidin-5-yl)-1-phenylcyclopropanecarboxamide]",20 to 100
21,"Cc1ccc(S(=O)(=O)NC(=O)c2cnc(-c3cccnn3)nc2O)cc1 [Compound 13-1, 4-hydroxy-2-(pyridazin-3-yl)-N-tosylpyrimidine-5-carboxamide]",100 to 10000

row,Compound,IC50 [nM]
1,"O=C(Nc1cnc(-n2cccn2)nc1O)C(c1ccccc1)c1ccccc1 [Compound 2-1, N-(4-hydroxy-2-(1H-pyrazol-1-yl)pyrimidin-5-yl)-2,2-diphenylacetamide]",0.5 to 20
2,"COc1ccccc1CC(=O)Nc1cnc(-n2cccn2)nc1O [Compound 3-30, N-(4-hydroxy-2-(1H-pyrazol-1-yl)pyrimidin-5-yl)-2-(2-methoxyphenyl)acetamide]",0.5 to 20
3,"CC(C)(NC(=S)Nc1cnc(-n2cccn2)nc1O)c1ccccc1 [Compound 8-1, 1-(4-hydroxy-2-(1H-pyrazol-1-yl)pyrimidin-5-yl)-3-(2-phenylpropan-2-yl)thiourea]",20 to 100
4,"O=C(Cc1ccc(C(F)(F)F)cc1)Nc1cnc(-n2cccn2)nc1O [Compound 3-29, 2-(4-(trifluoromethyl)phenyl)-N-(4-hydroxy-2-(1H-pyrazol-1-yl)pyrimidin-5-yl)acetamide]",0.5 to 20
5,"O=C(Nc1cnc(-n2cccn2)nc1O)C1CCc2ccccc21 (stereo not drawn) [Compound 3-53, 2,3-dihydro-N-(4-hydroxy-2-(1H-pyrazol-1-yl)pyrimidin-5-yl)-1H-indene-1-carboxamide]",0.5 to 20
6,"O=C(Nc1cnc(-n2cccn2)nc1O)c1cccc(C(F)(F)F)c1 [Compound 3-4, 3-(trifluoromethyl)-N-(4-hydroxy-2-(1H-pyrazol-1-yl)pyrimidin-5-yl)benzamide]",0.5 to 20
7,"CC(C(=O)Nc1cnc(-n2cccn2)nc1O)c1ccccc1 (stereo not drawn) [Compound 3-33, N-(4-hydroxy-2-(1H-pyrazol-1-yl)pyrimidin-5-yl)-2-phenylpropanamide]",0.5 to 20
8,"O=C(Nc1cnc(-n2cccn2)nc1O)C1CCCc2ccccc21 (stereo not drawn) [Compound 3-52, 1,2,3,4-tetrahydro-N-(4-hydroxy-2-(1H-pyrazol-1-yl)pyrimidin-5-yl)naphthalene-1-carboxamide]",0.5 to 20
9,"O=S(=O)(Cc1ccc(Cl)cc1)Nc1cnc(-n2cccn2)nc1O [Compound 4-2, 1-(4-chlorophenyl)-N-[4-hydroxy-2-(1H-pyrazol-1-yl)pyrimidin-5-yl]methanesulfonamide]",20 to 100
10,"O=S(=O)(Nc1cnc(-n2cccn2)nc1O)c1cccc(Cl)c1 [Compound 4-3, 3-chloro-N-[4-hydroxy-2-(1H-pyrazol-1-yl)pyrimidin-5-yl]benzenesulfonamide]",100 to 10000
11,"Oc1nc(-n2cccn2)ncc1-c1cnn(-c2ccccc2)c1 [Compound 11-1, 5-(1-phenyl-1H-pyrazol-4-yl)-2-(1H-pyrazol-1-yl)pyrimidin-4-ol]",100 to 10000
12,"N#Cc1ccc(C(=O)Nc2cnc(-n3cccn3)nc2O)cc1 [Compound 3-9, 4-cyano-N-(4-hydroxy-2-(1H-pyrazol-1-yl)pyrimidin-5-yl)benzamide]",20 to 100
13,"COc1ccccc1C(=O)Nc1cnc(-n2cccn2)nc1O [Compound 3-11, N-(4-hydroxy-2-(1H-pyrazol-1-yl)pyrimidin-5-yl)-2-methoxybenzamide]",20 to 100
14,"CC(C)(C)OC(=O)N1CCCC(C(=O)Nc2cnc(-n3cccn3)nc2O)C1 (stereo not drawn) [Compound 3-49, tert-butyl 3-(4-hydroxy-2-(1H-pyrazol-1-yl)pyrimidin-5-ylcarbamoyl)piperidine-1-carboxylate]",100 to 10000
15,"CC(C)NC(=O)Cc1cnc(-n2cccn2)nc1O [Compound 12-3, 2-(4-hydroxy-2-(1H-pyrazol-1-yl)pyrimidin-5-yl)-N-isopropylacetamide]",100 to 10000
16,"CC(C)N(C(=O)Nc1cnc(-n2cccn2)nc1O)c1ccccc1 [Compound 5-8, 3-(4-hydroxy-2-(1H-pyrazol-1-yl)pyrimidin-5-yl)-1-isopropyl-1-phenylurea]",20 to 100
17,"CC(C)(C)CCOC(=O)Nc1cnc(-n2cccn2)nc1O [Compound 5-15, 3,3-dimethylbutyl 4-hydroxy-2-(1H-pyrazol-1-yl)pyrimidin-5-ylcarbamate]",20 to 100
18,"CC(NC(=S)Nc1cnc(-n2cccn2)nc1O)c1ccccc1 (stereo not drawn) [Compound 7-1, 1-(4-hydroxy-2-(1H-pyrazol-1-yl)pyrimidin-5-yl)-3-(1-phenylethyl)thiourea]",0.5 to 20
19,"COc1ccc(C(=O)Nc2cnc(-n3cccn3)nc2O)cc1 [Compound 3-13, N-(4-hydroxy-2-(1H-pyrazol-1-yl)pyrimidin-5-yl)-4-methoxybenzamide]",20 to 100
20,"O=C(Cc1ccc2ccccc2c1)Nc1cnc(-n2cccn2)nc1O [Compound 3-6, N-(4-hydroxy-2-(1H-pyrazol-1-yl)pyrimidin-5-yl)-2-(naphthalen-3-yl)acetamide]",0.5 to 20
21,"CS(=O)(=O)c1ccc(C(=O)Nc2cnc(-n3cccn3)nc2O)cc1 [Compound 3-16, N-(4-hydroxy-2-(1H-pyrazol-1-yl)pyrimidin-5-yl)-4-(methylsulfonyl)benzamide]",20 to 100
